Assay results published in ChEMBL document CHEMBL4024706 (Eur J Med Chem, 2017).

Key:
[1] = system: Mast/stem cell growth factor receptor Kit (Homo sapiens), P10721 [A829P]; assay: Inhibition of human partial length KIT A829P mutant (I571 to D952 residues) expressed in mammalian expression system assessed as residual activity at 1 uM by Kinomescan method relative to control
[2] = biological target: Myosin light chain kinase family member 4 (Homo sapiens) (UniProt Q86YV6); assay: Inhibition of wild-type human partial length MYLK4 (V79 to S380 residues) expressed in bacterial expression system assessed as residual activity at 1 uM by Kinomescan method relative to control
[3] = biological target: Tyrosine-protein kinase Fyn (Homo sapiens) (UniProt P06241); assay: Inhibition of wild-type human partial length FYN (T243 to L534 residues) expressed in bacterial expression system assessed as residual activity at 1 uM by Kinomescan method relative to control
[4] = biological target: RAC-alpha serine/threonine-protein kinase (Homo sapiens) (UniProt P31749); assay: Inhibition of wild-type human partial length AKT1 expressed in bacterial expression system assessed as residual activity at 1 uM by Kinomescan method relative to control
[5] = biological target: Serine/threonine-protein kinase WNK2 (Homo sapiens) (UniProt Q9Y3S1); assay: Inhibition of wild-type human partial length WNK2 (V47 to D482 residues) expressed in mammalian expression system assessed as residual activity at 1 uM by Kinomescan method relative to control
[6] = biological target: Serine/threonine-protein kinase SIK1 (Homo sapiens) (UniProt P57059); assay: Inhibition of wild-type human partial length SIK (M1 to Y304 residues) expressed in bacterial expression system assessed as residual activity at 1 uM by Kinomescan method relative to control
PBMC = assay: Cytotoxicity against PBMC (unknwon origin); format: cell-based
[7] = biological target: Activin receptor type-1-like (Homo sapiens) (UniProt P37023); assay: Inhibition of wild-type human ACVRL1 (L164 to Q503 residues) expressed in bacterial expression system assessed as residual activity at 1 uM by Kinomescan method relative to control
[8] = biological target: Tyrosine-protein kinase Fer (Homo sapiens) (UniProt P16591); assay: Inhibition of wild-type human partial length FER (S542 to T822 residues) expressed in bacterial expression system assessed as residual activity at 1 uM by Kinomescan method relative to control
[9] = biological target: Cyclin-dependent kinase-like 3 (Homo sapiens) (UniProt Q8IVW4); assay: Inhibition of wild-type human partial length CDKL3 (M1 to D327 residues) expressed in bacterial expression system assessed as residual activity at 1 uM by Kinomescan method relative to control
[10] = biological target: Mitogen-activated protein kinase 8 (Homo sapiens) (UniProt P45983); assay: Inhibition of wild-type human full length JNK1 (M1 to Q384 residues) expressed in mammalian expression system assessed as residual activity at 1 uM by Kinomescan method relative to control
[11] = biological target: Serine/threonine-protein kinase PLK4 (Homo sapiens) (UniProt O00444); assay: Inhibition of wild-type human partial length PLK4 (M1 to S273 residues) expressed in mammalian expression system assessed as residual activity at 1 uM by Kinomescan method relative to control
[12] = biological target: Glycogen synthase kinase-3 beta (Homo sapiens) (UniProt P49841); assay: Inhibition of wild-type human full length GSK3B (M1 to T433 residues) expressed in mammalian expression system assessed as residual activity at 1 uM by Kinomescan method relative to control
[13] = biological target: Serine/threonine-protein kinase 4 (Homo sapiens) (UniProt Q13043); assay: Inhibition of wild-type human full length MST1 (M1 to F487 residues) expressed in bacterial expression system assessed as residual activity at 1 uM by Kinomescan method relative to control
[14] = biological target: Mitogen-activated protein kinase kinase kinase 19 (Homo sapiens) (UniProt Q56UN5); assay: Inhibition of wild-type human partial length YSK4 (T1019 to H1328 residues) expressed in mammalian expression system assessed as residual activity at 1 uM by Kinomescan method relative to control
[15] = biological target: Calcium/calmodulin-dependent protein kinase type II subunit delta (Homo sapiens) (UniProt Q13557); assay: Inhibition of wild-type human partial length CAMK2D (M1 to E329 residues) expressed in bacterial expression system assessed as residual activity at 1 uM by Kinomescan method relative to control
[16] = biological target: Inhibitor of nuclear factor kappa-B kinase subunit epsilon (Homo sapiens) (UniProt Q14164); assay: Inhibition of wild-type human full length IKK-epsilon (M1 to V716 residues) expressed in mammalian expression system assessed as residual activity at 1 uM by Kinomescan method relative to control
[17] = biological target: Casein kinase I isoform alpha (Homo sapiens) (UniProt P48729); assay: Inhibition of wild-type human partial length CSNK1A1 (M1 to L450 residues) expressed in mammalian expression system assessed as residual activity at 1 uM by Kinomescan method relative to control
[18] = biological target: Mitogen-activated protein kinase 6 (Homo sapiens) (UniProt Q16659); assay: Inhibition of wild-type human partial length ERK3 (M1 to P413 residues) expressed in bacterial expression system assessed as residual activity at 1 uM by Kinomescan method relative to control
[19] = biological target: Calcium/calmodulin-dependent protein kinase type 1D (Homo sapiens) (UniProt Q8IU85); assay: Inhibition of wild-type human partial length CAMK1D (M1 to K299 residues) expressed in bacterial expression system assessed as residual activity at 1 uM by Kinomescan method relative to control
U2932 = assay: Induction of apoptosis in human U2932 cells assessed as induction of caspase-3 cleavage after 48 hrs by immunoblot; format: functional, cell-based
[20] = system: Tyrosine-protein kinase ABL1 (Homo sapiens), P00519 [E255K]; assay: Inhibition of human phosphorylated ABL1 E255K mutant (S229 to K512 residues) expressed in mammalian expression system assessed as residual activity at 1 uM by Kinomescan method relative to control
[21] = biological target: RAC-gamma serine/threonine-protein kinase (Homo sapiens) (UniProt Q9Y243); assay: Inhibition of wild-type human partial length AKT3 expressed in bacterial expression system assessed as residual activity at 1 uM by Kinomescan method relative to control
[22] = biological target: Aurora kinase B (Homo sapiens) (UniProt Q96GD4); assay: Inhibition of wild-type human partial length AURKB (D25 to A303 residues) expressed in mammalian expression system assessed as residual activity at 1 uM by Kinomescan method relative to control
[23] = biological target: Serine/threonine-protein kinase STK11 (Homo sapiens) (UniProt Q15831); assay: Inhibition of wild-type human full length LKB1 (M1 to Q433 residues) expressed in bacterial expression system assessed as residual activity at 1 uM by Kinomescan method relative to control
[24] = biological target: Serine/threonine-protein kinase SBK1 (Homo sapiens) (UniProt Q52WX2); assay: Inhibition of wild-type human partial length SBK1 (P23 to P348 residues) expressed in mammalian expression system assessed as residual activity at 1 uM by Kinomescan method relative to control
[25] = biological target: Serine/threonine-protein kinase NLK (Homo sapiens) (UniProt Q9UBE8); assay: Inhibition of wild-type human full length NLK (M13 to E527 residues) expressed in bacterial expression system assessed as residual activity at 1 uM by Kinomescan method relative to control
Chain of Serine/threonine-protein kinase NLK (Homo sapiens) (Q9UBE8 whole entry, the tested form may be a part): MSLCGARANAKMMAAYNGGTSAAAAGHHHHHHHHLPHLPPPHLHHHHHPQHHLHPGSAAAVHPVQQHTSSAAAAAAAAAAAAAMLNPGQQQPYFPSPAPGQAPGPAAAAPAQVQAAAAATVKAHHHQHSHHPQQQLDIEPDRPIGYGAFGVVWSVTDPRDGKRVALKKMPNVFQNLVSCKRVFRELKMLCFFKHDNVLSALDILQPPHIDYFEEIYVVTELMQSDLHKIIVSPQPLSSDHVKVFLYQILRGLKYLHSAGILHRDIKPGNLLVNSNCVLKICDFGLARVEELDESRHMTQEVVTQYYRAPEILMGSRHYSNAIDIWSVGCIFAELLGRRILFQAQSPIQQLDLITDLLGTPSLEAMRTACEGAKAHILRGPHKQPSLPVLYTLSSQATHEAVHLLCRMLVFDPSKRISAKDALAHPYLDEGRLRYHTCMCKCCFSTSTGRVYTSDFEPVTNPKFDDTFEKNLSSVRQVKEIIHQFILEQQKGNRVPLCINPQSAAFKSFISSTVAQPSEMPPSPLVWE

Chain of Aurora kinase B (Homo sapiens) (Q96GD4 whole entry, the tested form may be a part): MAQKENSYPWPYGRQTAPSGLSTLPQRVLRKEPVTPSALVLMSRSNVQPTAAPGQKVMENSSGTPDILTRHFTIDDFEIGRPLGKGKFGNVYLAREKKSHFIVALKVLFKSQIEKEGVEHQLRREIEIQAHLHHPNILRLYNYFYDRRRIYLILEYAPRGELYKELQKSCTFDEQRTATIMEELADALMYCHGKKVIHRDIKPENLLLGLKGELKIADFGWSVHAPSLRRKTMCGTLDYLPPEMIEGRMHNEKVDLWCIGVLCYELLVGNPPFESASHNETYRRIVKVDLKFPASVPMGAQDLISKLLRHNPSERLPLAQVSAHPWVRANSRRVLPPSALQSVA
Chain of Tyrosine-protein kinase Fyn (Homo sapiens) (P06241 2-537 limits assumed): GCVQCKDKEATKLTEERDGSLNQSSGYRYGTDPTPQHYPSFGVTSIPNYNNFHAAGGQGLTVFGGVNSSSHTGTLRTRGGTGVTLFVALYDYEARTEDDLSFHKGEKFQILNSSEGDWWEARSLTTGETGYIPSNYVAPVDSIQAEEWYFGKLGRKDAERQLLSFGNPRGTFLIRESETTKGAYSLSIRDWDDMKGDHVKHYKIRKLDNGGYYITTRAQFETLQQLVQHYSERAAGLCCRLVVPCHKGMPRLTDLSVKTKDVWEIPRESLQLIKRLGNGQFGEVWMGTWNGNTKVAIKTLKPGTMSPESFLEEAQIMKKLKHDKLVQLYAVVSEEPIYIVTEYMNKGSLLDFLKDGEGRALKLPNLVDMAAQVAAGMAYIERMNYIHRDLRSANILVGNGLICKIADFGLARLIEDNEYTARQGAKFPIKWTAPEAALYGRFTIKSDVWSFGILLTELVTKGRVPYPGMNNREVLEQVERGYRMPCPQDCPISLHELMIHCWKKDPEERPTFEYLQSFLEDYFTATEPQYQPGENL
Chain of Mitogen-activated protein kinase kinase kinase 19 (Homo sapiens) (Q56UN5 whole entry, the tested form may be a part): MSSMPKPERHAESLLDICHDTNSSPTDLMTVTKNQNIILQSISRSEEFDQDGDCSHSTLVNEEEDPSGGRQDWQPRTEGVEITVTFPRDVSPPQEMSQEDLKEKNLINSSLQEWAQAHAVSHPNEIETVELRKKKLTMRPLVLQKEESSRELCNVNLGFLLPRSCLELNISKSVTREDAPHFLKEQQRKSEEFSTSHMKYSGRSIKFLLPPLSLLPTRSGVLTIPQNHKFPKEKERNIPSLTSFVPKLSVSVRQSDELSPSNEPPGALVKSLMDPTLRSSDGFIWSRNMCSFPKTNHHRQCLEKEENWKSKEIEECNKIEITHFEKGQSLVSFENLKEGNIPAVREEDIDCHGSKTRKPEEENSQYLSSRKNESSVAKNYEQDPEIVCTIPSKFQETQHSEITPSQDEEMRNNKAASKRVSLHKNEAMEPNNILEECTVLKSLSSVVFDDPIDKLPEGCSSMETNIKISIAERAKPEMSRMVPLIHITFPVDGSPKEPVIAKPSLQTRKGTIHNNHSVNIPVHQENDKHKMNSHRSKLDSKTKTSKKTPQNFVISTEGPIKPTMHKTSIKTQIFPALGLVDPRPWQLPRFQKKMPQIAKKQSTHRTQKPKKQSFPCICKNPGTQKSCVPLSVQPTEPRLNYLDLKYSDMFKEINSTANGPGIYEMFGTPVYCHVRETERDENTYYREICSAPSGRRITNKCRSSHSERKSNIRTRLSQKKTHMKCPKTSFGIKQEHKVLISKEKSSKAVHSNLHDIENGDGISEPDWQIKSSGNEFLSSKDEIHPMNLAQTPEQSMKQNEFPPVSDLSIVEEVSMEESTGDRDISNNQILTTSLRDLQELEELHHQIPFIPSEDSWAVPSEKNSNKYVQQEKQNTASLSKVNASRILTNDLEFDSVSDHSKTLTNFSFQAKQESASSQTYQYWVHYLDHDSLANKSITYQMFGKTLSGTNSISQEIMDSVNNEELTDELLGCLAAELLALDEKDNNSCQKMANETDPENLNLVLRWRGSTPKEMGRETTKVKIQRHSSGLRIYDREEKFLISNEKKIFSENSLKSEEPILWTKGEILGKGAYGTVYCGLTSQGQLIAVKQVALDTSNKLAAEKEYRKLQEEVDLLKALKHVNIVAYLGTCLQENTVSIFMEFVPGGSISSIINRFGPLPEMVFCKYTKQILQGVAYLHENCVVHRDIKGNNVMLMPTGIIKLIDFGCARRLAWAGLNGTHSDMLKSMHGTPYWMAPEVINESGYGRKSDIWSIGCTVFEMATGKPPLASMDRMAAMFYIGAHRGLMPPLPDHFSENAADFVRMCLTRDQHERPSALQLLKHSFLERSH
Chain of Serine/threonine-protein kinase STK11 (Homo sapiens) (Q15831 whole entry, the tested form may be a part): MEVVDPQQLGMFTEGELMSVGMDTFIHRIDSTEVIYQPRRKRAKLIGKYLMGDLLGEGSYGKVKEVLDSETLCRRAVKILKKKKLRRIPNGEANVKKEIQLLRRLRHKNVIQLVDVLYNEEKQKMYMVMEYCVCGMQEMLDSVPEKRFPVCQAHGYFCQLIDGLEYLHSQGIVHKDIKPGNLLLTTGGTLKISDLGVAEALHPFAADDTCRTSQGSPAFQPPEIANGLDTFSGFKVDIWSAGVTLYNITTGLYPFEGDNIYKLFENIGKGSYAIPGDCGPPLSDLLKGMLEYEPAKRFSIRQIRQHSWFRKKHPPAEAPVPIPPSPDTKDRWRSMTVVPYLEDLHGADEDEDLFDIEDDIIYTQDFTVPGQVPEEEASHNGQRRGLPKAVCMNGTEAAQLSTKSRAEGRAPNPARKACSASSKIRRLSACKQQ
Chain of Calcium/calmodulin-dependent protein kinase type II subunit delta (Homo sapiens) (Q13557 whole entry, the tested form may be a part): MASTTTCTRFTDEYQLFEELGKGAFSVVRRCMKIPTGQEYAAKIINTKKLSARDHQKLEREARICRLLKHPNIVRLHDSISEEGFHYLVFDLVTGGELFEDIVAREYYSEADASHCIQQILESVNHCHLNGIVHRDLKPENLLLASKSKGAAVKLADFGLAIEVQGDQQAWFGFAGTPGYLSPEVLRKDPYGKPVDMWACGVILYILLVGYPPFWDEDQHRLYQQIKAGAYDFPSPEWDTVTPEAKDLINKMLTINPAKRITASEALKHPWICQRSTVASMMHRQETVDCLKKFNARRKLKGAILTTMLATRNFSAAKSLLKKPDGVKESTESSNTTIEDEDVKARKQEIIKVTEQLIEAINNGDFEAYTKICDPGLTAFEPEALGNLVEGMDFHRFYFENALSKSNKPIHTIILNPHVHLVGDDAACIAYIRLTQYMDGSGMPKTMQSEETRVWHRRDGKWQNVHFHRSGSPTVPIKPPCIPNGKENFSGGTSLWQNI
Chain of Mitogen-activated protein kinase 6 (Homo sapiens) (Q16659 whole entry, the tested form may be a part): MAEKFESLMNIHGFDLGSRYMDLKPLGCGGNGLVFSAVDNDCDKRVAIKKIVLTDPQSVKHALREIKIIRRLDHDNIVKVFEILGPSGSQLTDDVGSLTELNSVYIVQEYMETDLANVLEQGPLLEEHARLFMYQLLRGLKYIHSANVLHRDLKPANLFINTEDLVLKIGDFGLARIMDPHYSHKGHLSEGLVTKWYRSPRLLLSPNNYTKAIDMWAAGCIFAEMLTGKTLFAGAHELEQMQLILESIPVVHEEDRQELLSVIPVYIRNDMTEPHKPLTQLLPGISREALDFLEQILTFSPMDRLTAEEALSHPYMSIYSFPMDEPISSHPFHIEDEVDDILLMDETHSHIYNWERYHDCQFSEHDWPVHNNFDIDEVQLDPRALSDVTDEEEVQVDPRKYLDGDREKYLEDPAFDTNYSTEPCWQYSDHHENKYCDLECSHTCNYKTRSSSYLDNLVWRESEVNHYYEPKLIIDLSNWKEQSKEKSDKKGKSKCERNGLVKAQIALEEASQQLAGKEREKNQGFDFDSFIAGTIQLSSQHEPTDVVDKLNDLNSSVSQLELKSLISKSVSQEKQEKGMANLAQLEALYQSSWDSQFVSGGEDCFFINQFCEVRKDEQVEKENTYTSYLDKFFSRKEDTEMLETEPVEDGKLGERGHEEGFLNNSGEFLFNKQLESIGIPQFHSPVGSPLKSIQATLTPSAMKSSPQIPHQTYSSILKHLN
Chain of Glycogen synthase kinase-3 beta (Homo sapiens) (P49841 whole entry, looked up, the tested form may be a part): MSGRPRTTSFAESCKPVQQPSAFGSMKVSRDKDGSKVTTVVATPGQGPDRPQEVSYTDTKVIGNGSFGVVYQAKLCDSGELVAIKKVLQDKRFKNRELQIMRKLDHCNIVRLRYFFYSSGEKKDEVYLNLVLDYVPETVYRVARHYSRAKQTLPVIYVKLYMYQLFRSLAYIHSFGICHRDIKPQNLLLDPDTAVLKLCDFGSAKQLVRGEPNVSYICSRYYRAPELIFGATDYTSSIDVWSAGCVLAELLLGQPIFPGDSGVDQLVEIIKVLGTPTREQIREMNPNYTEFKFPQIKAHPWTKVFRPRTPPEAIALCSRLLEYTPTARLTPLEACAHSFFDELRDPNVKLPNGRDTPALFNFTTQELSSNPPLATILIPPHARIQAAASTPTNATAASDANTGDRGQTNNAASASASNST

`C=CC(=O)Nc1cc(Nc2cc(-c3cccc(NC(=O)c4ccc(C(C)(C)C)cc4)c3C)cn(C)c2=O)ccc1C(=O)N1CCOCC1` gave an Activity [1] of 93%, an Activity [2] of 88% and an Activity [3] of 73%. The Activity [4] was 100%, the Activity [5] was 99% and the Activity [6] was 93%. For the same compound, the Activity (PBMC) was “Non-Toxic”, the Activity [7] was 89% and the Activity [8] was 99%. The Activity [9] was 91%, the Activity [10] was 100% and the Activity [11] was 99%. The Activity [12] was 87%, the Activity [13] was 95% and the Activity [14] was 100%. The Activity [15] was 100%, the Activity [16] was 100% and the Activity [17] was 100%. The Activity [18] was 100%, the Activity [19] was 97% and the Activity (U2932) was “Dose-dependent effect”. For the same compound, the Activity [20] was 100%, the Activity [21] was 95% and the Activity [22] was 98%. For the same compound, the Activity [23] was 98%, the Activity [24] was 100% and the Activity [25] was 63%.
